Consider 18 compounds from ChEMBL document CHEMBL4000174, “Synthesis and antitumor activity of novel substituted uracil-1'(N)-acetic acid ester derivatives of 20(S)-camptothecins” (Eur J Med Chem, 2017).

Data set [1] has as its system H22. As to the kind of experiment: Antitumor activity against mouse H22 cells implanted in Kunming mouse assessed as tumor growth inhibition at 24 mg/kg, ip administered once in every 3 days totally for 3 times relative to control. Format: functional. As to conditions: 72 h, read-out: TGI.
Data set [2] concerns Mus musculus. As to the kind of experiment: Toxicity in Kunming mouse implanted with mouse H22 cells assessed as body weight at 24 mg/kg, ip administered once in every three days totally for 3 times (reference value: 32.5 g). The format is organism-based. As to conditions: in vivo.
Another data set has as its system HCT-8. As to the kind of experiment: Antiproliferative activity against human HCT8 cells after 96 hrs by MTT assay. The note with it: HCT-8, 96 h. Format: functional, cell-based. In general terms: Formazan colour is commonly taken as a measure of viable cells.
The next data set concerns Bel-7402. As to the kind of experiment: Antiproliferative activity against human Bel7402 cells after 96 hrs by MTT assay. Format: functional, cell-based. As to conditions: Bel-7402, 96 h.
For data set [3], the system named is BGC-823. As to the kind of experiment: Antiproliferative activity against human BGC823 cells after 96 hrs by MTT assay. The format is functional, cell-based. The note with it: BGC-823, 96 h.
A further data set relates to A2780. As to the kind of experiment: Antiproliferative activity against human A2780 cells after 96 hrs by MTT assay. Format: functional, cell-based. As to conditions: A2780, 96 h.
The next data set has as its system A549. As to the kind of experiment: Antiproliferative activity against human A549 cells after 96 hrs by MTT assay. The format is functional, cell-based. As to conditions: A549, 96 h.
Data set [4] deals with Mus musculus. As to the kind of experiment: Toxicity in Kunming mouse implanted with mouse H22 cell assessed as survival at 40 mg/kg, ip administered on day 1 and day 5. Format: organism-based. The note with it: in vivo.
In data set [5] the test system is H22. As to the kind of experiment: Antitumor activity against mouse H22 cells implanted in Kunming mouse assessed as tumor growth inhibition at 40 mg/kg, ip administered on day 1 and day 5 relative to control relative to control. As to conditions: read-out: TGI. Format: functional.
Data set [6] concerns Mus musculus. As to the kind of experiment: Toxicity in Kunming mouse implanted with mouse H22 cells assessed as body weight at 40 mg/kg, ip administered on day 1 and day 5 (reference value: 32.5 g). The format is organism-based. The note with it: in vivo.
The test system of data set [7] is BGC-823. As to the kind of experiment: Antitumor activity against human BGC823 cells xenografted in BALB/c nude mouse assessed as tumor growth inhibition at 50 mg/kg, ip administered once in a week for two weeks starting from 6 days post tumor transplantation measured 27 to 30 days post tumor transplantation relative to control. As to conditions: BGC-823, ip, read-out: TGI. Format: functional. A general note: Xenograft models place foreign cells or tissue in a host animal.

For data set [8], the system named is Mus musculus. As to the kind of experiment: Toxicity in BALB/c nude mouse xenografted with human BGC823 cells assessed as body weight at 50 mg/kg, ip administered once in a week for two weeks starting from 6 days post tumor transplantation and measured every 3 days during compound dosing for 15 days (reference value: 23.6 g). As to conditions: in vivo, 360 h. Format: organism-based.

Data set [9] has as its system Mus musculus. As to the kind of experiment: Toxicity in BALB/c nude mouse xenografted with human BGC823 cells assessed as mouse survival at 50 mg/kg, ip administered once in a week for two weeks starting from 6 days post tumor transplantation. As to conditions: in vivo, 144 h. The format is organism-based.
Data set [10] relates to H22. As to the kind of experiment: Antitumor activity against mouse H22 cells implanted in Kunming mouse assessed as tumor growth inhibition at 100 mg/kg, ip administered twice relative to control. As to conditions: read-out: TGI.
Data set [11] deals with H22. As to the kind of experiment: Antitumor activity against mouse H22 cells implanted in Kunming mouse assessed as tumor growth inhibition at 60 mg/kg, ip administered twice relative to control. The format is functional. The note with it: read-out: TGI.
The test system of data set [12] is H22. As to the kind of experiment: Antitumor activity against mouse H22 cells implanted in Kunming mouse assessed as tumor growth inhibition at 100 mg/kg, ip administered once relative to control. As to conditions: read-out: TGI. Format: functional.
The test system of data set [13] is Mus musculus. As to the kind of experiment: Toxicity in Kunming mouse implanted with mouse H22 cells assessed as body weight at 100 mg/kg, ip administered once (reference value: 31.1 g). Format: organism-based. As to conditions: in vivo.
The subject of data set [14] is Mus musculus. As to the kind of experiment: Toxicity in Kunming mouse implanted with mouse H22 cells assessed as body weight at 60 mg/kg, ip administered twice (reference value: 31.1 g). Format: organism-based. The note with it: in vivo.

The structures appear in SMILES notation. Some results are limits rather than exact numbers.

Consider `CC(=O)O[C@H]1C(=O)[C@@]2(C)[C@H]([C@H](OC(=O)c3ccccc3)[C@]3(O)C[C@H](OC(=O)[C@H](O)[C@@H](NC(=O)c4ccccc4)c4ccccc4)C(C)=C1C3(C)C)[C@]1(OC(C)=O)CO[C@@H]1C[C@@H]2O` [PACLITAXEL], for which, in the data set on H22 [1], the inhibition in vivo at 24 mg/kg came out at 73.8%. Further, the Activity in the data set with Mus musculus [2] is on record as 18.9 g.

`CC[C@@]1(OC(=O)Cn2cc(Cl)c(=O)[nH]c2=O)C(=O)OCc2c1cc1n(c2=O)Cc2cc3ccccc3nc2-1`: the half-inhibitory concentration (IC50) (usually the point on the concentration scale where inhibition reaches its midpoint) in the data set on HCT-8 was 13 nM; with Bel-7402 it was 17 nM; in the data set on BGC-823 [3], 16 nM; in the data set with A2780, 110 nM; in the data set on A549 it was 54 nM.

In the case of `CC[C@@]1(OC(=O)Cn2cc(Br)c(=O)[nH]c2=O)C(=O)OCc2c1cc1n(c2=O)Cc2cc3ccccc3nc2-1`, the Activity entry with Mus musculus [4] was “Non-Toxic”; in the data set on Mus musculus [6] it was 32.1 g. Also, in the data set with H22 [5], the inhibition in vivo at 40 mg/kg amounted to 6.39%. Besides, the IC50 in the data set on HCT-8 worked out at 6 nM; in the data set with Bel-7402, 12 nM; in the data set with BGC-823 [3], 16 nM; in the data set with A2780, 160 nM; with A549 it was 48 nM.

`CCc1c2c(nc3ccccc13)-c1cc3c(c(=O)n1C2)COC(=O)[C@@]3(CC)OC(=O)Cn1ccc(=O)[nH]c1=O`: the IC50 in the data set on HCT-8 is 2 nM; in the data set with Bel-7402, 14 nM; in the data set on BGC-823 [3], 17 nM; in the data set with A2780 it was 86 nM; in the data set with A549, 65 nM.

As to `CC[C@@]1(OC(=O)Cn2cc(I)c(=O)[nH]c2=O)C(=O)OCc2c1cc1n(c2=O)Cc2cc3c([N+](=O)[O-])cccc3nc2-1`, the half-inhibitory concentration (IC50) came to 14 nM in the data set on HCT-8; 13 nM in the data set with Bel-7402; 16 nM in the data set on BGC-823 [3]; 200 nM in the data set with A2780; 117 nM with A549.

As for `CCc1c2c(nc3ccccc13)-c1cc3c(c(=O)n1C2)COC(=O)[C@@]3(CC)OC(=O)Cn1cc(I)c(=O)[nH]c1=O`, the IC50 in the data set on HCT-8 came out at 586 nM; with Bel-7402 it was 4510 nM; with BGC-823 [3], 2570 nM; in the data set with A2780, 669 nM; with A549 it was 710 nM.

Regarding `CC[C@@]1(OC(=O)Cn2cc(Cl)c(=O)[nH]c2=O)C(=O)OCc2c1cc1n(c2=O)Cc2cc3c([N+](=O)[O-])cccc3nc2-1`, the IC50 in the data set on HCT-8 was determined as 13 nM; in the data set on Bel-7402 it was 16 nM; in the data set on BGC-823 [3] it was 17 nM; with A2780, 221 nM; in the data set with A549 it was 75 nM.

As to `CCc1c2c(nc3ccc(OC(=O)N4CCC(N5CCCCC5)CC4)cc13)-c1cc3c(c(=O)n1C2)COC(=O)[C@]3(O)CC` [IRINOTECAN], the inhibition in vivo at 50 mg/kg in the data set with BGC-823 [7] came out at 94.1%. Also, the Activity is reported as 20.5 g in the data set with Mus musculus [8] and “Non-Toxic” with Mus musculus [9].

Regarding `CC[C@@]1(OC(=O)Cn2ccc(=O)[nH]c2=O)C(=O)OCc2c1cc1n(c2=O)Cc2cc3c([N+](=O)[O-])cccc3nc2-1`, the figures for the Activity result in the data set with Mus musculus [4] and with Mus musculus [6] were “Non-Toxic” and 32 g, respectively. In addition, the inhibition in vivo at 40 mg/kg with H22 [5] was determined as 11%. Further, the half-maximal inhibitory concentration (IC50) with HCT-8 came out at 14 nM; with Bel-7402, 18 nM; with BGC-823 [3] it was 17 nM; in the data set on A2780 it was 73 nM; with A549, 51 nM.

Consider `CC[C@@]1(OC(=O)Cn2cc(I)c(=O)[nH]c2=O)C(=O)OCc2c1cc1n(c2=O)Cc2cc3ccccc3nc2-1`, for which the IC50 in the data set with HCT-8 was 957 nM; in the data set with Bel-7402, 3280 nM; in the data set on BGC-823 [3], 7890 nM; in the data set on A2780, 750 nM; with A549 it was 6400 nM.

Regarding `CC[C@@]1(OC(=O)Cn2ccc(=O)[nH]c2=O)C(=O)OCc2c1cc1n(c2=O)Cc2cc3ccccc3nc2-1`, the half-inhibitory concentration (IC50) is 14 nM with HCT-8; 18 nM in the data set with Bel-7402; 17 nM in the data set with BGC-823 [3]; 160 nM in the data set on A2780; 46 nM in the data set on A549.

Turning to `CC[C@@]1(OC(=O)Cn2cc(F)c(=O)[nH]c2=O)C(=O)OCc2c1cc1n(c2=O)Cc2cc3c([N+](=O)[O-])cccc3nc2-1`, the IC50 with HCT-8 turned out to be 13 nM; with Bel-7402 it was 16 nM; in the data set with BGC-823 [3], 17 nM; with A2780 it was 115 nM; with A549, 81 nM.

Consider `CC[C@@]1(O)C(=O)OCc2c1cc1n(c2=O)Cc2cc3ccccc3nc2-1` [CAMPTOTHECIN], for which the half-inhibitory concentration (IC50) is 24 nM in the data set with HCT-8; 14 nM with Bel-7402; 57 nM with BGC-823 [3]; 29 nM in the data set on A2780; 6 nM in the data set with A549.

Take `CC[C@@]1(OC(=O)Cn2cc(Br)c(=O)[nH]c2=O)C(=O)OCc2c1cc1n(c2=O)Cc2cc3c([N+](=O)[O-])cccc3nc2-1`: the IC50 in the data set on HCT-8 was 13 nM; in the data set on Bel-7402 it was 13 nM; with BGC-823 [3] it was 15 nM; in the data set with A2780, 183 nM; in the data set on A549, 90 nM.

In the case of `CCc1c2c(nc3ccccc13)-c1cc3c(c(=O)n1C2)COC(=O)[C@@]3(CC)OC(=O)Cn1cc(Br)c(=O)[nH]c1=O`, the half-maximal inhibitory concentration (IC50) with HCT-8 is less than 2 nM; in the data set with Bel-7402 it was 12 nM; in the data set on BGC-823 [3], 31 nM; in the data set with A2780 it was 182 nM; in the data set with A549 it was 88 nM.

As to `O=P1(N(CCCl)CCCl)NCCCO1` (centres undefined) [CYCLOPHOSPHAMIDE ANHYDROUS], the inhibition in vivo at 100 mg/kg in the data set with H22 [10] was 93.7%.

As to `CC[C@@]1(OC(=O)Cn2cc(F)c(=O)[nH]c2=O)C(=O)OCc2c1cc1n(c2=O)Cc2cc3ccccc3nc2-1`, the IC50 turned out to be 109 nM with HCT-8; 86 nM with Bel-7402; 64 nM in the data set with BGC-823 [3]; 68 nM with A2780; 126 nM with A549.

As to `CCc1c2c(nc3ccccc13)-c1cc3c(c(=O)n1C2)COC(=O)[C@@]3(CC)OC(=O)Cn1cc(Cl)c(=O)[nH]c1=O`, the Activity entry with Mus musculus [4] is given as “Non-Toxic”; with Mus musculus [6] it was 27 g; in the data set with Mus musculus [13] it was 25.2 g; with Mus musculus [14], 26.2 g. For the same compound, the inhibition in vivo at 40 mg/kg in the data set with H22 [5] turned out to be 46.2%. Also, the 50% inhibitory concentration (IC50) in the data set on HCT-8 amounted to 2 nM; in the data set with Bel-7402, 12 nM; in the data set with BGC-823 [3] it was 17 nM; in the data set on A2780, 670 nM; in the data set with A549, 38 nM. Besides, the inhibition in vivo at 60 mg/kg in the data set with H22 [11] turned out to be 76.6%. Besides, the inhibition in vivo at 100 mg/kg in the data set with H22 [12] is 58.7%.
